# Key:
# Test in all cases: whole-cell patch clamp, HEK-293T
# Type in all cases: cell-based
# TCaV1 [1] = biological target: T1, TCaV1 (Trichoplax adhaerens, UniProt A0A8K1XS01); conditions: for inhibition at 10 µM: read-out: % block at 10 μM
# rCaV1.2 [2] = biological target: T2, rCaV1.2 (Rattus norvegicus, UniProt P22002); conditions: for inhibition at 10 µM: read-out: % block at 10 μM
# rCaV1.2 [3] = biological target: T2, rCaV1.2; conditions: 3 mM external Ca2+, step from -100 mV to 0 mV, pH 7.4, agonist
# TCaV1 [4] = biological target: T1, TCaV1; conditions: 3 mM external Ca2+, step from -100 mV to 0 mV, pH 7.4, agonist
# T1 sequence (A0A8K1XS01 1-1822): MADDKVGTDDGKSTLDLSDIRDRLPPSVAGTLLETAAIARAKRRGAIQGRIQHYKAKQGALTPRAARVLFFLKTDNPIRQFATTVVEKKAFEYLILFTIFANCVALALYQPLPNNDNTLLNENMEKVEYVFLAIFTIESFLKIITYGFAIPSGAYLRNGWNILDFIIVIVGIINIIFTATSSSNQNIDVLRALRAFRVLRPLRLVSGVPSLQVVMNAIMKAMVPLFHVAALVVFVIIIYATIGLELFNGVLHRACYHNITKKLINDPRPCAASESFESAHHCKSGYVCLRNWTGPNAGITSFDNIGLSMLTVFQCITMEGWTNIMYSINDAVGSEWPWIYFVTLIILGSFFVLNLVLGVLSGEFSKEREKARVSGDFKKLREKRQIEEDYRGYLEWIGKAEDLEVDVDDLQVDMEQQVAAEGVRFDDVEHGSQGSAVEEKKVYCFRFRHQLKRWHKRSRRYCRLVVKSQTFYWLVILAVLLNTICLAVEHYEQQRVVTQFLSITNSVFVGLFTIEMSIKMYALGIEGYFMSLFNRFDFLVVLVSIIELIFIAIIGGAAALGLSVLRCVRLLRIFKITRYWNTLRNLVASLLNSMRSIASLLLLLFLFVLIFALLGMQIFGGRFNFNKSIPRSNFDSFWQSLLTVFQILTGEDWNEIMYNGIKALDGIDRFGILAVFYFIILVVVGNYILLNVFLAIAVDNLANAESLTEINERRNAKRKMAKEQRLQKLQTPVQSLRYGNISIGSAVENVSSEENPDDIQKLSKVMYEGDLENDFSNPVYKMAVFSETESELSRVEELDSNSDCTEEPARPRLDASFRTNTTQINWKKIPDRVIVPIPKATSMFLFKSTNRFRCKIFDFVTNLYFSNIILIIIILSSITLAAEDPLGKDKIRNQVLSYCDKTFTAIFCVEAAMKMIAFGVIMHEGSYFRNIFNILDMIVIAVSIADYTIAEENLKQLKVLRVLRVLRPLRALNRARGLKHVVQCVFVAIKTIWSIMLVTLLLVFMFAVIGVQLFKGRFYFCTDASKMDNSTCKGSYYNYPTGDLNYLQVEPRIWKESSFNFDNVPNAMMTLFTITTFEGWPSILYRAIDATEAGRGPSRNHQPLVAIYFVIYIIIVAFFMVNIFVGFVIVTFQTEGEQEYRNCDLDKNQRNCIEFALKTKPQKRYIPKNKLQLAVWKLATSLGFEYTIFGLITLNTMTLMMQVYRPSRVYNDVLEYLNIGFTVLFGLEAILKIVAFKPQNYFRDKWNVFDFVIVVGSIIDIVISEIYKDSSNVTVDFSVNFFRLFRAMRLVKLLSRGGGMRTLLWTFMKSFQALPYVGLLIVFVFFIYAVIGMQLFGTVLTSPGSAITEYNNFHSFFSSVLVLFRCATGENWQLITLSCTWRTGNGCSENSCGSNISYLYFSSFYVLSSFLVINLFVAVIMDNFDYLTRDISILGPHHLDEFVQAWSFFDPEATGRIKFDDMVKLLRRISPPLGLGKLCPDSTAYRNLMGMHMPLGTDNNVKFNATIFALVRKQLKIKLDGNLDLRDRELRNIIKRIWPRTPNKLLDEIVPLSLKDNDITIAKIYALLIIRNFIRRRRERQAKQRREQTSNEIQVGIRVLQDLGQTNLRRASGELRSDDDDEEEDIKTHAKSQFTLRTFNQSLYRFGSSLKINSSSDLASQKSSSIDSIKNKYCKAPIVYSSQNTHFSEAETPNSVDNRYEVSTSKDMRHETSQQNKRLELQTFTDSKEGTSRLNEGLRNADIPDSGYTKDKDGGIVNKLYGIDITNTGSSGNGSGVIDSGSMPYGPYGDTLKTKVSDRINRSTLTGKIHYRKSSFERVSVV
# T1 sequence (P54283 whole entry partner): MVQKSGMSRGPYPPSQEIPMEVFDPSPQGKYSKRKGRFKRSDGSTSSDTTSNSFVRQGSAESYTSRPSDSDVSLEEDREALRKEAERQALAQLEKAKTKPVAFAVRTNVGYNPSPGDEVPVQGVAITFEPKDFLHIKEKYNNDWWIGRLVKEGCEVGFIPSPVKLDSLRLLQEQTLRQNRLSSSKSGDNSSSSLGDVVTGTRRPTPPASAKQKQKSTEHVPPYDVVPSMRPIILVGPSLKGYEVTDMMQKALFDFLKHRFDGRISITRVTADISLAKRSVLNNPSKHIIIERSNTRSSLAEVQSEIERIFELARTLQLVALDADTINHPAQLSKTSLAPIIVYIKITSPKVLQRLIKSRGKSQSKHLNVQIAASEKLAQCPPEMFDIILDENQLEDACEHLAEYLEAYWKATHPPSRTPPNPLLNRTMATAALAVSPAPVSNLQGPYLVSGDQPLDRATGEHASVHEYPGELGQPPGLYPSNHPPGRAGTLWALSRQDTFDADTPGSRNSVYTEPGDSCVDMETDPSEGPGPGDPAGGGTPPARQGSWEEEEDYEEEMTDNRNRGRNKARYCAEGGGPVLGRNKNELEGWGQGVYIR
# T1 sequence (P54290 25-944 partner): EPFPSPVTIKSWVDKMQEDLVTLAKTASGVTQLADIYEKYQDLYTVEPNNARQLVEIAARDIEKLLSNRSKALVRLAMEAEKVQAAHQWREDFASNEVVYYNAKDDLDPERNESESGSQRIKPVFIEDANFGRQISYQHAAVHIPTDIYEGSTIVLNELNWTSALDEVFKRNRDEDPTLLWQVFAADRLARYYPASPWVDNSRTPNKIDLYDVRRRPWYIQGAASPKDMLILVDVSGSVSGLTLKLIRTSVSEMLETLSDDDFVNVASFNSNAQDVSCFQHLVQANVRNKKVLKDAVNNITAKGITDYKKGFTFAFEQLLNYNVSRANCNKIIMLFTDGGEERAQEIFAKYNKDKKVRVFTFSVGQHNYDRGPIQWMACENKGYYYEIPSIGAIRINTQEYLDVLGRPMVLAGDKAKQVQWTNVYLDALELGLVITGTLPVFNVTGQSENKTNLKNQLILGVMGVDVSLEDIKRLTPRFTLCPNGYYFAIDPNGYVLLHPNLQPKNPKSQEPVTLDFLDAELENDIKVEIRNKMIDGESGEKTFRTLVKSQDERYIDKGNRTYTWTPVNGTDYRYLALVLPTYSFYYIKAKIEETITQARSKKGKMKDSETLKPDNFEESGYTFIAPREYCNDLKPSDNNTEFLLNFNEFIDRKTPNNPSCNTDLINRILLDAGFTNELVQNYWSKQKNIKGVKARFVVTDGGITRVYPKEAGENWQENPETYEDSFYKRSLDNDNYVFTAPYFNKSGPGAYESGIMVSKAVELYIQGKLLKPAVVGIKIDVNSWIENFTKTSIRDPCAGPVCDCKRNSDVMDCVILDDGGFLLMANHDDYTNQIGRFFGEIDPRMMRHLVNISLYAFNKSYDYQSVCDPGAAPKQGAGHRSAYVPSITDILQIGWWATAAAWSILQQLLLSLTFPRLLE
# T1 sequence (P54290 945-1091 partner): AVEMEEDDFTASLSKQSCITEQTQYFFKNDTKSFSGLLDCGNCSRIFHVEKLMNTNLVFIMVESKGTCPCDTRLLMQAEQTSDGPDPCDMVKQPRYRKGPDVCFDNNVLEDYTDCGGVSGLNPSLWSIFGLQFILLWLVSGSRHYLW
smiles,measurement,setting,value
COC(=O)C1=C(C)NC(C)=C([N+](=O)[O-])[C@@H]1c1ccccc1C(F)(F)F [R(+)BayK 8644],inhibition at 100 µM,TCaV1 [1]; read-out: % block at 100 μM,74.2 ± 0.05%
same,inhibition at 100 µM,rCaV1.2 [2]; read-out: % block at 100 μM,97.3 ± 0.01%
COC(=O)C1=C(C)NC(C)=C(C(=O)OC(C)C)C1c1cccc2nonc12 (centres unmarked) [isradipine],inhibition at 10 µM,TCaV1 [1],11.5 ± 2.2%
same,inhibition at 10 µM,rCaV1.2 [2],95 ± 6.1%
COC(=O)C1=C(C)NC(C)=C(C(=O)OC)C1c1ccccc1[N+](=O)[O-] [nifedipine],inhibition at 10 µM,TCaV1 [1],5.8 ± 3.6%
same,inhibition at 10 µM,rCaV1.2 [2],99.7 ± 0.1%
COC(=O)C1=C(C)NC(C)=C([N+](=O)[O-])[C@H]1c1ccccc1C(F)(F)F [S(-)BayK 8644],fold-increase in peak current at 5 μM,rCaV1.2 [3],1.64 ± 0.32 fold
same,fold-increase in peak current at 5 μM,TCaV1 [4],1.11 ± 0.024 fold

# — article PMC8980814 (The Journal of Biological Chemistry, 2022)
